US6699676B1, “Uses of ouabain and ouabain-like molecules in apoptosis related pathologies” (Corporation du Centre de Recherche du Centre, Hospitalier …, priority 1999, dated 2004)

Assays:
caspase-3 [1] = assay: Caspase-3 activity in treated Jurkat cells; assay type: cell-based, human; conditions: for increase of caspase-3 activity: 3 hours, Fas ligand 100 ng/ml, staurosporine 0.25 μM, mannitol 350 mM
Protocol: (§1) FIG. 5. Effect of ouabain on caspase-3 activity in VSMC-E1A (A) and Jurkat cells (B). VSMC-E1A and Jurkat cells were pretreated with 1 mM ouabain for 1 and 2 hours, respectively, and the additions indicated below the bars were delivered in media with 10% calf serum and with the baseline (137/5) or inverse (14/128) [Na^+]o/[K^+]o ratio for 6 (VSMC-E1A) or 3 hours (Jurkat cells). In experiments with VSMC-E1A, calf serum (CS) was omitted where indicated (−). Abbreviations: staur.—staurosporine (0.25 μM), ok.ac.—okadaic acid (1 μM), mann.—mannitol (350 mM); Fas-L—Fas ligand (100 ng/ml). Mean values±S.E. obtained in experiments performed in quadruplicate (A) or triplicate (B) are given. ★p<0.001 compared to ouabain-untreated cells.
(§2) Caspase activity. VSMC-E1A seeded in 20 cm^2 flasks and treated as indicated in FIG. 5 were scratched, transferred to centrifuge tubes, washed twice with PBS and lysed in 0.5 ml of buffer A contaming 50 mM tris-HCl (pH 7.4), 5 mM MgCl2, 1 mM EGTA and 0.1% CHAPS. Then, 50-100 μl of cell lysate was mixed with 600 μl of buffer A containing 1 mM dithiothreitol, 40 μM YVAD-AMC or DEVD-AMC with or without 1 μM of caspase-1 and capspase-3 inhibitors (Ac-YVAD-CHO and Ac-DEVD-CHO, respectively), incubated for 2 hours at 37° C. and diluted 15-fold with 80 mM glycine-NaOH buffer (pH 10). Fluorescence of the samples was measured at ex=365 run and em=465 run and calibrated with AMC in the range of 10 to 100 nM. To measure caspase activity in control and ouabain-treated Jurkat cells, 5 ml of suspension containing ˜2×10^7 cells was transferred onto ice and sedimented. The pellet of cells was washed and treated with 0.3 ml of medium A in the same way as VSMC. Protein content was estimated by Bradford methods.

caspase-3 [2] = assay: Caspase-3 activity in treated VSMC-E1A; assay type: cell-based, rat
Protocol: as §1, §2

VSMC-E1A = assay: Chromatin cleavage assay in VSMC-E1A; assay type: cell-based, rat
Protocol: FIG. 2. Effect of ouabain on chromatin cleavage in VSMC-E1A. (A) Kinetics of the accumulation of chromatin fragments in control (curves 1, 3) and ouabain-treated (curves 2, 4) VSMC-E1A in the presence of 10% calf serum (CS, curves 1, 2) or in CS-free medium (curves 3, 4). Mean values ±S.E. obtained in experiments performed in quadruplicate are given. (B) Content of chromatin fragments in VSMC-E1A subjected to 6 hr of incubation in serum-supplied medium with or without 1 mM ouabain, 0.25 μM staurosporine, 1 μM okadaic acid and 350 mM mannitol. Mean values±S.E. obtained in 3 experiments performed in quadruplicate are given. ★, ★★ p<0.05 and 0.001 compared to ouabain-untreated cells. In both experiments, ouabain was added 1 hour before triggering of apoptosis.
Cells were incubated in K^+-containing medium consisting of 91 mM NaCl, 5 mM KCl, 0.9 mM NaH2PO4, 44 mM NaHCO3, 1.8 mM CaCl2, 0.8 mM MgCl2, 33 mM HEPES and 5 mM D-glucose (pH 7.4) (lines 1 and 2) or in K^+-depleted medium (equimolar substitution of KCl by NaCl, line 3) with or without 10% calf serum (CS) and 1 mM ouabain as indicated. In experiments with VSMC-MYC and VSMC-E1A, cells were preincubated for 1 hr with ouabain or with K^+-depleted medium in the presence of CS and then subjected to treatment with serum-free media. After 24 hours (VSMC) or 6 hours (VSMC-MYC and VSMC-E1A), the content of chromatin fragments was measured as described in Experimental Procedures. Mean values±S.E. obtained in 3 experiments performed in quadruplicate (VSMC) or triplicate (VSMC-MYC, VSMC-E1A) are given. ★, ★★ p<0.05 and 0.001 compared to the controls.
To estimate chromatin cleavage, cells were incubated for 1 hr in the presence of 10% calf serum (CS) in the control solution (DMEM, [Na^+]=137 mM; [K^+]=5 mM—line 1) or under equimolar substitution of NaCl by KCl ([Na^+]=14 mM; [K^+]=128 mM—line 2) with or without 1 mM ouabain and then for an additional 6 hours in the same media with or without CS. Intracellular Na^+ and K^+ content was measured as steady-state distribution of isotopes after 24 hours preincubation of cells in control Na^+-enriched solution containing 0.5 μCi/ml ^86Rb or 2 μCilml ^22Na, and additional 6 hours incubation in Na^+—(line 1) or K^+—(line 2) enriched medium, containing 10% CS and isotopes with the same specific activity with or without 1 mM ouabain. For more details see Experimental Procedures. Mean values±S.E. obtained in 3 experiments performed in triplicate (ion content) or quadruplicate (chromatin cleavage) are given. ★p<0.001 compared to ouabain-untreated cells.
VSMC-E1A cells were pretreated with compounds indicated in the left column during 2 hours in DMEM containing 10% calf serum and then additional 3 hours in the absence or presence of calf serum. The increment of the content of chromatin fragments triggered by serum withdrawal in control cells was taken as 100%. Means+S.E. from experiments performed with quadruplicate are given. ★p<0.001 as compared to control.
Cells. VSMC were obtained by explant methods from aortas of 10- to 13-week-old male rats as described previously (17), cultured in DMEM with 10% calf serum, 100 U/ml penicillin, 100 µg/ml streptomycin and used between 10 to 16 passages. Cells transfected with c-myc (VSMC-MYC) and E1A-adenovirus (VSMC-E1A) were obtained in accordance with a previously-described protocol (18,19) and were cultured in the same medium with the addition of 500 µg/ml genticin. Jurkat cells were obtained from the American Type Culture Collection and cultured in RPMI 1640 medium supplied with 10% calf serum, antibiotics, sodium pyruvate, glutamate and β-mercaptoethanol.
Chromatin cleavage assay. Chromatin cleavage in VSMC was estimated by a technique described previously in detail (10). Briefly, VSMC grown in 24-well dishes were labeled for 24 hours in serum-supplied DMEM with [^3H]-thymidine (1 μCi/ml), washed with 2×2 ml of DMEM and incubated in serum-supplied DMEM. […]

`C[C@@H]1O[C@@H](O[C@H]2C[C@@H](O)[C@]3(CO)[C@H]4[C@H](O)C[C@]5(C)[C@@H](C6=CC(=O)OC6)CC[C@]5(O)[C@@H]4CC[C@]3(O)C2)[C@H](O)[C@H](O)[C@H]1O` [Ouabain, 1β,3β,5,11α,14,19-hexahydroxycard 20 [22]-enolide 3-[6-deoxy-α-L-mannopyrano-sidel]] was tested, and the “increment of caspase-3 activity triggered by Fas ligand, staurosporine and hyperosmotic shrinkage” value (caspase-3 [1]; ouabain) was “Neither ouabain nor equimolar substitution of Na^+ by K^+ in the incubation medium affected the increment of caspase-3 activity”, the “baseline caspase-3 activity” value (caspase-3 [1]; pretreatment 2 hours with 1 mM ouabain (from 296±38)) was 497±67 pmol (mg prot)^−1 hr^−1 and the “increment of caspase-3 activity under induction of apoptosis” value (caspase-3 [2]; 1 mM ouabain, control medium) was “abolished the increment of caspase-3 activity”. For the same molecule, the “caspase-3 activity in apoptosis triggered by okadaic acid” value (caspase-3 [2]; ouabain, K+-enriched, Na+-depleted medium ([Na+]o/[K+]o=14/128)) was “did not observe any effect”, the “baseline activity of caspase-3” value (caspase-3 [2]; pretreatment 1 hour with 1 mM ouabain (from 560±41)) was 101±39 pmol (mg prot)^−1 hr^−1 and the “apoptosis triggered by staurosporine and okadaic acid” value (VSMC-E1A; VSMC-E1A, 1 mM ouabain, FIG. 2b) was “blocked”. The “Increment of chromatin fragments triggered by serum withdrawal(%)” value (VSMC-E1A; VSMC-E1A, 1 mM, pretreated 2 hours then 3 hours with or without calf serum, control increment taken as 100%) was 21 ± 3 %, the “Chromatin fragments (%)” value (VSMC-E1A; VSMC-E1A, 10% CS, 1 mM ouabain, 1 hr preincubation, 6 hours) was 1.5 ± 0.3 % and the “Chromatin fragments (%)” value (VSMC-E1A; VSMC-E1A, CS-free, 1 mM ouabain, 1 hr preincubation, 6 hours) was 5.7 ± 0.6 %. The “baseline and serum withdrawal-induced chromatin cleavage” value (VSMC-E1A; VSMC-E1A, ouabain added 1 hour before, FIG. 2a) was “blocked baseline as well as serum withdrawal-induced chromatin cleavage”, the “Chromatin fragments (%)” value (VSMC-E1A; ouabain-treated VSMC-E1A, 1 mM, 10% CS, medium [Na+]o=14, [K+]o=128 mM, 1 hr + 6 hours) was 5.0% and the “Chromatin fragments (%)” value (VSMC-E1A; ouabain-treated VSMC-E1A, 1 mM, 10% CS, medium [Na+]o=137, [K+]o=5 mM, 1 hr + 6 hours) was 1.9%. The “Chromatin fragments (%)” value (VSMC-E1A; ouabain-treated VSMC-E1A, 1 mM, CS-free, medium [Na+]o=14, [K+]o=128 mM, 1 hr + 6 hours) was 32.0% and the “Chromatin fragments (%)” value (VSMC-E1A; ouabain-treated VSMC-E1A, 1 mM, CS-free, medium [Na+]o=137, [K+]o=5 mM, 1 hr + 6 hours) was 6.3%.
For `OC[C@@H](O)[C@@H](O)[C@H](O)[C@H](O)CO` [mannitol], the “increase of caspase-3 activity” value (caspase-3 [1]) was roughly 10 fold, the “caspase-3 activity under mannitol-induced cell shrinkage” value (caspase-3 [2]; 350 mM mannitol, 6 hours) was “insensitive to mannitol-induced cell shrinkage” and the “chromatin cleavage under hyperosmotic shrinkage” value (VSMC-E1A; control and ouabain-treated VSMC-E1A, 350 mM mannitol, 6 hr) was “insensitive to hyperosmotic shrinkage”.
For `CN[C@@H]1C[C@H]2O[C@@](C)([C@@H]1OC)n1c3ccccc3c3c4c(c5c6ccccc6n2c5c31)C(=O)NC4` [staurosporine], the “increase of caspase-3 activity” value (caspase-3 [1]) was roughly 20 fold, the “increase of caspase-3 activity” value (caspase-3 [2]; 6 hours, staurosporine 0.25 μM, okadaic acid 1 μM) was 8 fold and the “content of chromatin fragments” value (VSMC-E1A; VSMC-E1A, 6 hr, serum-supplied medium, 0.25 μM staurosporine, 1 μM okadaic acid) was 30.1±4.7%.
